This experiment has as its target T1, native human TRPA1 receptors (Homo sapiens, UniProt O75762).
T1 construct: stably expressing native human TRPA1 receptors were used; endogenous in cells; host or cells: A549 human lung adenocarcinoma epithelial cell line
Description: PF-4840154 (1 μM)-induced Ca2+ fluorescence measurements in A549 cell line. The class given is cell-based. The conditions noted are these: for inhibition at 10 µM: 10 μM compound against 1 μM PF-4840154, A549 cells; for pIC50: against PF-4840154 (1 μM)-evoked [Ca2+]i mobilization; for pIC50 / IC50: A549 cells; for IC50: against PF-4840154 (1 μM), cells printed in μM. On the procedure:
PF-4840154 (1 μM)-Induced Ca^2+ Fluorescence Measurements in A549 Cell Line
Human lung adenocarcinoma epithelial cell line (A549) stably expressing native human TRPA1 receptors were used. The cells were cultured in medium consisting of Eagle's minimal essential medium (EMEM) supplemented with 10% fetal bovine serum (FBS), penicillin (100 IU/ml), streptomycin ([…]), L-glutamine (2 mM), sodium bicarbonate (2.5 g/L) and HEPES (24 mM). Cells were kept at 37° C. in 5% CO2/humidified air. For the experiments the cells were seeded at a density of 16,000 cells/well into 96-well black, clear-bottom plates. After 24 hours incubation the cells were loaded with medium supplemented with 2.5 mM probenecid, 3 μM of the calcium sensitive fluorescent dye Fluo-4 AM and 0.01% pluronic acid, for 30 min at 37° C. Afterwards the loading solution was aspirated and 100 μl/well of assay buffer: Hank's Balanced Salt Solution (HBSS) supplemented with 2.5 mM probenecid and 500 μM Brilliant Black (Aldrich) was added. Stock solutions (100 mM) of ligands were made in Dimethyl Sulfoxide (DMSO) and stored at −20° C. Serial dilutions of ligands for experimental use were made in HBSS buffer. After placing both plates (cell culture and compound plate) into the FlexStation II (Molecular Device, Union City, Calif. 94587, US), fluorescence changes were measured. On-line additions were carried out in a volume of […]. To facilitate drug diffusion into the wells in antagonist type experiments, the studies were performed at 36.5° C. and three cycles of mixing (25 μl from each well moved up and down 3 times) were performed immediately after antagonist injection to the wells. All exemplified compounds were tested alone (to address residual agonistic activity) and against 1 μM of PF-4840154 to address inhibitory activity at the initial concentration of 10 μM. For selected examples the entire inhibitory concentration-response curves were constructed and the IC50 value calculated.
PF-4840154 (1 μM) increased [Ca^2+] in the vast majority (95%) of cultured cells which were thereby identified as TRPA1 expressing cells.

Structures are written as SMILES. pIC50: −log10 of the molar value. A value given as a limit tells only on which side of the number the result lay.

T1 sequence (O75762 whole entry): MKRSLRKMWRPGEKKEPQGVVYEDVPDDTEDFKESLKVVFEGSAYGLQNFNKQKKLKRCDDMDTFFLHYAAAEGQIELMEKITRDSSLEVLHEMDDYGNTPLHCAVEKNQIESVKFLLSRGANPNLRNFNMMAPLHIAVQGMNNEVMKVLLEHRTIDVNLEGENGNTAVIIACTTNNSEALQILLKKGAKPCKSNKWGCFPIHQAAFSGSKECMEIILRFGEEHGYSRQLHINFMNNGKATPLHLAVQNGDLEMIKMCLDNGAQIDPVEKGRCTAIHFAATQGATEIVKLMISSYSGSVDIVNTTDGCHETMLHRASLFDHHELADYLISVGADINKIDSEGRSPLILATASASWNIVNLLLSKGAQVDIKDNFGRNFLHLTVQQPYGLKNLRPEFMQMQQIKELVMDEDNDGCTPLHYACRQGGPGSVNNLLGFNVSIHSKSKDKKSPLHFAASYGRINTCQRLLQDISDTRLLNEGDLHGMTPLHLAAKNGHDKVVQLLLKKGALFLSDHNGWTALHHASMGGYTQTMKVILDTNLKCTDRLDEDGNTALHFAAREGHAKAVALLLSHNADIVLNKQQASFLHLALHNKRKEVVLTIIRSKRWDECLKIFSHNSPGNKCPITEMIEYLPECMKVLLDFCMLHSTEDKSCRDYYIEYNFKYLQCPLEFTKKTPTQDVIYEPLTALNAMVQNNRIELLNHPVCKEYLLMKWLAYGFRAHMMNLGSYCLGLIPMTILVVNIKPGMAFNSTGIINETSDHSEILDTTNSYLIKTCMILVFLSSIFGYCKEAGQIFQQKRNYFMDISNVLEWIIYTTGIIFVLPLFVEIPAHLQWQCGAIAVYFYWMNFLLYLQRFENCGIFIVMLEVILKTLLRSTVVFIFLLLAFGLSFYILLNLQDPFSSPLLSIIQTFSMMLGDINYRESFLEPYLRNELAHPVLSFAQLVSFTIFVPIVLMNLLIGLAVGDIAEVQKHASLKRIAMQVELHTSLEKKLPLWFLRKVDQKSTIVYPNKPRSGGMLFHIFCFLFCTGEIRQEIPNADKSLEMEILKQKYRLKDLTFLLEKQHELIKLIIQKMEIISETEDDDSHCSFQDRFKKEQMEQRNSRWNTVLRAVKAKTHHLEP

The compound `CCN(C1(C(=O)NCc2cccc(-c3ccc(OC(F)(F)F)cc3)c2)CC1)S(=O)(=O)c1ccc(F)cc1` [Example 31, 1-[ethyl-(4-fluorophenyl)sulfonyl-amino]-N-[[3-[4-(trifluoromethoxy)phenyl]phenyl]methyl]cyclopropanecarboxamide] gave an inhibition at 10 µM of 100% and a pIC50 of 7.24.

The compound `O=C(NCc1cc(-c2ccc(C(F)(F)F)cc2)nc(N2CCCC2)c1)C1(NS(=O)(=O)c2ccc(F)cc2)CC1` [Example 32, 1-[(4-fluorophenyl)sulfonylamino]-N-[[2-pyrrolidin-1-yl-6-[4-(trifluoromethyl)phenyl]-4-pyridyl]methyl] cyclopropanecarboxamide] displayed an inhibition at 10 µM of 80% and a half-inhibitory concentration (IC50) above 4 µM.

Compound `O=C(NCc1cc(-c2ccc(OC(F)(F)F)cc2)nc(N2CCCC2)c1)C1(NS(=O)(=O)c2ccc(F)cc2)CC1` [Example 33, 1-[(4-fluorophenyl)sulfonylamino]-N-[[2-pyrrolidin-1-yl-6-[4-(trifluoromethoxy)phenyl]-4-pyridyl]methyl]cyclopropanecarboxamide] yielded an inhibition at 10 µM of 55% and an IC50 above 2 µM.

In turn, `C=C(C(=O)NCc1ccnc(-c2ccc(C(F)(F)F)cc2)c1)N(CC)S(=O)(=O)c1ccc(F)c(F)c1` [Example 35, 2-[(3,4-difluorophenyl)sulfonyl-ethyl-amino]-N-[[2-[4-(trifluoromethyl)phenyl]-4-pyridyl]methyl]prop-2-enamide] showed an inhibition at 10 µM of 100% and a pIC50 of 7.24.

In turn, `C=C(C(=O)NCc1ccnc(-c2ccc(C(F)(F)F)cc2)c1)N(CC)S(=O)(=O)c1cccc(F)c1` [Example 36] had an inhibition at 10 µM of 100% and a negative logarithm of the IC50 (pIC50) of 6.93.

Regarding `C=C(C(=O)NCc1cc(-c2ccc(C(F)(F)F)cc2)nc(N(C)C)c1)N(CC)S(=O)(=O)c1ccc(Cl)s1` [Example 39, 2-[(5-chloro-2-thienyl)sulfonyl-ethyl-amino]-N-[[2-dimethylamino-6-[4-(trifluoromethyl)phenyl]-4-pyridyl]methyl]prop-2-enamide], the inhibition at 10 µM is 100% and the pIC50 is 7.70.

Regarding `C=C(C(=O)NCc1cc(-c2ccc(C(F)(F)F)cc2)nc(N(C)C)c1)N(CC)S(=O)(=O)c1cccs1` [Example 41, N-[[2-dimethylamino-6-[4-(trifluoromethyl)phenyl]-4-pyridyl]methyl]-2-(ethyl(2-thienylsulfonyl)amino)prop-2-enamide], the inhibition at 10 µM amounted to 96% and the pIC50 was 6.87.

Compound `C=C(C(=O)NCc1cc(-c2ccc(C(F)(F)F)cc2)nc(N2CCOCC2)c1)N(CC)S(=O)(=O)c1ccc(F)cc1` [Example 42, 2-[ethyl-(4-fluorophenyl)sulfonyl-amino]-N-[[2-morpholino-6-[4-(trifluoromethyl)phenyl]-4-pyridyl]methyl]prop-2-enamide] showed an inhibition at 10 µM of 100% and a negative logarithm of the IC50 (pIC50) of 6.98.

`C=C(C(=O)NCc1cc(-c2ccc(C(F)(F)F)cc2)nc(N2CCOCC2)c1)N(CC)S(=O)(=O)c1ccc(Cl)s1` [Example 43, 2-[(5-chloro-2-thienyl)sulfonyl-ethyl-amino]-N-[[2-morpholino-6-[4-(trifluoromethyl)phenyl]-4-pyridyl]methyl]prop-2-enamide] had an inhibition at 10 µM of 100% and a pIC50 of 7.32.

The compound `C=C(C(=O)NCc1cc(OC(C)C)nc(-c2ccc(C(F)(F)F)cc2)c1)N(CC)S(=O)(=O)c1ccc(F)cc1` [Example 44, 2-[ethyl-(4-fluorophenyl)sulfonyl-amino]-N-[[2-isopropoxy-6-[4-(trifluoromethyl)phenyl]-4-pyridyl]methyl]prop-2-enamide] had an inhibition at 10 µM of 100% and a pIC50 of 7.74.

On to `CCN(C1(C(=O)NCc2cc(-c3ccc(C(F)(F)F)cc3)nc(N(C)C)c2)CC1)S(=O)(=O)c1ccc(F)cc1` [Example 45, N-[[2-dimethylamino-6-[4-(trifluoromethyl)phenyl]-4-pyridyl]methyl]-1-[ethyl-(4-fluorophenyl)sulfonyl-amino]cyclopropanecarboxamide], for which testing at 10 µM gave an inhibition of 100% and the negative-log IC50 (pIC50) is 6.82.

Compound `CCN(C1(C(=O)NCc2ccnc(-c3ccc(C(F)(F)F)cc3)c2)CC1)S(=O)(=O)c1ccc(Cl)s1` [Example 46, 1-[(5-chloro-2-thienyl)sulfonyl-ethyl-amino]-N-[[2-[4-(trifluoromethyl)phenyl]-4-pyridyl]methyl]cyclopropanecarboxamide] gave an inhibition at 10 µM of 97% and a pIC50 of 7.20.

In turn, `CCN(C1(C(=O)NCc2cccc(-c3ccc(OC(F)(F)F)cc3)c2)CC1)S(=O)(=O)c1ccc(Cl)s1` [Example 47, 1-[(5-chloro-2-thienyl)sulfonyl-ethyl-amino]-N-[[3-[4-(trifluoromethoxy)phenyl]phenyl]methyl]cyclopropanecarboxamide] had an inhibition at 10 µM of 96% and a pIC50 of 6.95.

Take `CCN(C1(C(=O)NCc2cc(OC)nc(-c3ccc(C(F)(F)F)cc3)c2)CC1)S(=O)(=O)c1ccc(F)cc1` [Example 48, 1-[ethyl-(4-fluorophenyl)sulfonyl-amino]-N-[[2-methoxy-6-[4-(trifluoromethyl)phenyl]-4-pyridyl]methyl]cyclopropanecarboxamide]: at 10 µM the inhibition was 96% and the pIC50 was 6.59.

As for `CCN(C1(C(=O)NCc2cc(OC(C)C)nc(-c3ccc(C(F)(F)F)cc3)c2)CC1)S(=O)(=O)c1ccc(F)cc1` [Example 49, 1-[ethyl-(4-fluorophenyl)sulfonyl-amino]-N-[[2-isopropoxy-6-[4-(trifluoromethyl)phenyl]-4-pyridyl]methyl]cyclopropanecarboxamide], 10 µM produced 98% inhibition and the pIC50 was 7.02.

With `CCOc1cc(CNC(=O)C2(N(CC)S(=O)(=O)c3ccc(F)cc3)CC2)cc(-c2ccc(C(F)(F)F)cc2)n1` [Example 52, N-[[2-ethoxy-6-[4-(trifluoromethyl)phenyl]-4-pyridyl]methyl]-1-[ethyl-(4-fluorophenyl)sulfonyl-amino]cyclopropanecarboxamide], the inhibition at 10 µM came out at 99% and the pIC50 is 7.06.

`C=C(C(=O)NCc1cc[n+]([O-])c(-c2ccc(C(F)(F)F)cc2)c1)N(CC)S(=O)(=O)c1ccc(F)cc1` [Example 54, 2-[ethyl-(4-fluorophenyl)sulfonyl-amino]-N-[[1-oxido-2-[4-(trifluoromethyl)phenyl]pyridin-1-ium-4-yl]methyl]prop-2-enamide] yielded an inhibition at 10 µM of 47% and an IC50 above 10 µM.

The compound `C=C(C(=O)NCc1cccc(-c2ccc(OC(F)(F)F)cc2)c1)N(CC)S(=O)(=O)c1ccc(Cl)s1` [Example 55, 2-[(5-chloro-2-thienyl)sulfonyl-ethyl-amino]-N-[[3-[4-(trifluoromethoxy)phenyl]phenyl]methyl]prop-2-enamide] showed an inhibition at 10 µM of 100% and a pIC50 of 7.51.

With `C=C(C(=O)NCc1ccnc(-c2ccc(C(F)(F)F)cc2)c1)N(C)S(=O)(=O)c1ccc(F)cc1` [Example 56, 2-[(4-fluorophenyl)sulfonyl-methyl-amino]-N-[[2-[4-(trifluoromethyl)phenyl]-4-pyridyl]methyl]prop-2-enamide], the inhibition at 10 µM was 100% and the pIC50 was 6.56.

The term inhibition denotes the percentage by which the read-out fell short of the control. A high value points to a response far below the control. Broadly, the pIC50 is the IC50 on a negative log10 scale, so that one unit is a factor of ten. High values mean a small IC50, low ones a large IC50. The IC50 is the concentration that inhibits the measured activity by half.

These data come from patent US9409864B2, “Sulfonamide TRPA1 receptor antagonists” (ARIO PHARMA LIMITED, priority 2013, dated 2016).
